In patent US5624687A, “Quick-dissolution solid preparation” (Yamanouchi Pharmaceutical Co., Ltd., priority 1991, dated 1997):
Structures can show the parent of a compound that is named as a salt.

Assay: Solubility determination of bulk substance in test solutions of various pH (37° C., 1 hour)
Type: physicochemical
Conditions: for solubility at 1 h: test solution
Description: Emonapride hydrochloride (0.05-5 g) was added to 10 ml portions of test solutions of various pH and each mixture was shaken at 37° C. for 1 hour, at the end of which it was filtered through Nucripore Membrane (pore size 0.6 μm). A definite portion of the filtrate was taken out and diluted with acetate buffer (pH 3.0) for use as a sample solution.
Separately, about 0.1 g of emonapride hydrochloride was accurately weighed out and dissolved in methanol to make exactly 100 ml. One milliliter portion of this solution was accurately taken out and diluted with acetate buffer (pH 3.0) to make exactly 100 ml for use as the standard solution. For each of the test solution and the standard solution, the absorbance at 313 nm was measured by absorption spectrometry and the solubility was determined.
In the preparation of the test solutions, JP Test Solution 1 was used for pH 1.2, acetate buffer (S.phi.rensen buffer) for pH 2.0-5.0, phosphate buffer (Clark-Lubs buffer) for pH 6.0-7.6 and JP Test Solution 2 for pH 6.8.

SMILES | solubility (statement in the description) (conditions over pH 4) | solubility change with pH (as the pH exceeded 4, 37° C.) | pH dependence of dissolution (bulc substance, from solubility at various pH) | solubility at 1 h (pH≤4, 37° C.) | solubility at 1 h (pH≥6.8, 37° C.)
CNc1cc(OC)c(C(=O)NC2CCN(Cc3ccccc3)C2C)cc1Cl (centres unmarked) [Emonapride, N-(1-Benzyl-2-methylpyrrolidin-3-yl)-5-chloro-2-methoxy-4-methylaminobenzamide] | drastically insoluble | – | – | – | –
CNc1cc(OC)c(C(=O)NC2CCN(Cc3ccccc3)C2C)cc1Cl (centres unmarked) [emonapride hydrochloride] | – | decreased sharply | pH-dependent | ≥ 5000 µg/mL | ≤ 10 µg/mL
